Reference: publication PMC9783881, “Synthesis and Preclinical Evaluation of Small-Molecule Prostate-Specific Membrane Antigen-Targeted Abiraterone Conjugate” (Molecules, 2022)
“Also recorded” adds a separate entry of the source.

Columns and labels:
Acute toxicity in mice = assay type: in vivo
Method: White, outbred male mice (ICR) about 2 months old weighing 19–21 g were used. Conjugate PSMA-Abi (2000 mg/kg) was formulated with 1% starch gel solution. The mixture was administrated intragastrically in an amount not exceeding 0.5 mL, and in portions if necessary. The control group was administered 1% starch gel solution. Animals were kept under controlled environmental conditions: air temperature 20–26 °C and relative humidity 30–70%. Lighting in the rooms was artificial (a cycle of 12 h of light, 12 h of darkness). Before the start of the study, animals were divided into groups of 10 animals per group. The distribution was made such that the average masses of groups of animals of one species differed by no more than 10%. Before the experiment concerning the determination of acute toxicity, the animals were deprived of food and water (mice for 2 h) and then weighed. The duration of observation of laboratory animals was 14 days. During this period, visible signs of intoxication were evaluated. Dose selection was carried out based on 22Rv1 xenograft experiments with the maximum effective dose for mice of 500 mg/kg.

22Rv1 = assay: Single cell ROS measurement with Pt-nanoelectrodes, 22Rv1; assay type: cell-based, human; conditions: 22Rv1, 1 h incubation, IC50 concentration
Method: Commercially available, disk-shaped carbon nanoelectrodes isolated in quartz (ICAPPIC Limited, London, UK) with diameters of 60–100 nm were used to prepare Pt nanoelectrodes for the amperometric detection of intracellular ROS level. Preparation of Pt-nanoelectrodes has been described in detail previously.
Briefly, a disk-shaped carbon nanoelectrode was etched in a 0.1 M NaOH, 10 mM KCl solution for 20–40 cycles of 10 seconds (from 0 to +2200 mV) to create nanocavities. Electrochemical deposition of platinum in nanocavities was achieved by cycling from 0 to −800 mV with a scan rate of 200 mV s^−1 for 8 to 10 cycles in 2 mM H2PtCl6 solution in 0.1 M hydrochloric acid. […]
The setup for amperometric measurements included a PC that was connected to a system consisting of an ADC–DAC converter Axon Digidata 1550B (Axon Instruments, Burlingame, CA, USA) and patch-clamp amplifier MultiClamp 700B (Axon Instruments, USA). […] The potential difference between the Pt-nanoelectrode and the reference electrode was recorded with the pClamp 11 software suite (Molecular Devices, Silicon Valley, CA, USA) and processed with Origin 2018 software.
PC-3 (2.0 × 10^5)/22Rv1 (3.5 × 10^5) cells were seeded in 35 mm Petri dishes, incubated under the conditions described above, and then treated for 24 h. […] Untreated cells were used as a control, which was evaluated at the beginning and at the end of the experiment. […]

[1] = mice males, 2000 mg/kg single, M±SD

## C[C@]12CC[C@H](OC(=O)CCCc3cn(CCCNC(=O)[C@H](Cc4ccc(O)cc4)NC(=O)[C@H](Cc4ccccc4)NC(=O)CCC(=O)NCCCCCC(=O)N(CCCC[C@H](NC(=O)N[C@@H](CCC(=O)O)C(=O)O)C(=O)O)Cc4cccc(Cl)c4)nn3)CC1=CC[C@@H]1[C@@H]2CC[C@]2(C)C(c3cccnc3)=CC[C@@H]12 [PSMA-Abi]
Acute toxicity in mice; [1]
  weight dynamic, % of starting weight, 5 days: 17.5±7.4%
  weight dynamic, % of starting weight, 10 days: 30.9±11.5%
  weight dynamic, % of starting weight, 14 days: 30.7±17.9%
Acute toxicity in mice; mice, 2000 mg/kg single dose, by the 14th day, control 50
  growth rate (body weight), % of initial weight: 30%
Acute toxicity in mice; mice, 2000 mg/kg single dose, intragastric, 14 days observation, 2000 mg/kg
  animal death: No animal death was observed; also recorded: without animal death
Acute toxicity in mice; mice, single dose
  tolerable dose: 2000 mg/kg
22Rv1
  ROS (hydrogen peroxide) level in single cells: significant increase in comparison with both the control and AbiAc groups
